Reference: ChEMBL document CHEMBL6096670, “Design, synthesis and biological evaluation of novel β-carbolines as antitumor agents via targeting autophagy in colorectal cancer” (Eur J Med Chem, 2025)
Active and inactive are the calls of the source. The rule behind the calls is not given here.

Assays:
MCF7 = assay: Antiproliferative activity against human MCF7 cells assessed as inhibition of cell growth incubated for 48 hrs by MTT assay; format: functional, cell-based; details: MCF7, 48 h
HT-29 = assay: Antiproliferative activity against human HT-29 cells assessed as inhibition of cell growth incubated for 48 hrs by MTT assay; format: functional, cell-based; details: HT-29, 48 h
SK-OV-3 = assay: Antiproliferative activity against human SK-OV-3 cells assessed as inhibition of cell growth incubated for 48 hrs by MTT assay; format: functional, cell-based; details: SK-OV-3, 48 h
HCT-116 [1] = assay: Induction of autophagy in human HCT-116 cells transfected with tandem mRFP-GFP-LC3 plasmid assessed as reduction in p62 expression incubated for 24 hrs by Western blot analysis; format: functional, cell-based; details: dose 0.5-20 µM
HCT-116 [2] = assay: Induction of apoptosis in human HCT-116 assessed as viable cells at 1 uM incubated for 24 hrs Annexin V FITC/PI double staining based flow cytometry (Rvb =90.0%); format: functional; details: read-out: Activity
HCT-116 [3] = assay: Induction of apoptosis in human HCT-116 assessed as viable cells at 2 uM incubated for 24 hrs Annexin V FITC/PI double staining based flow cytometry (Rvb =90.0%); format: functional; details: read-out: Activity
HCT-116 [4] = assay: Induction of apoptosis in human HCT-116 assessed as early apoptotic cells at 2 uM incubated for 24 hrs Annexin V FITC/PI double staining based flow cytometry (reference value: 1.07 %); format: functional
HCT-116 [5] = assay: Induction of apoptosis in human HCT-116 assessed as necrotic cells at 2 uM incubated for 24 hrs Annexin V FITC/PI double staining based flow cytometry (reference value: 0.94 %); format: functional
HCT-116 [6] = assay: Induction of apoptosis in human HCT-116 assessed as viable cells at 2 uM pretreated with Z-VAD-FMK for 30 mins followed by compound addition and measured after 24 hrs by Annexin V-FITC/PI double staining based flow cytometry (reference value: 90.8%); format: functional; details: read-out: Activity
HCT-116 [7] = assay: Induction of apoptosis in human HCT-116 assessed as late apoptotic cells at 2 uM pretreated with Z-VAD-FMK for 30 mins followed by compound addition and measured after 24 hrs by Annexin V-FITC/PI double staining based flow cytometry (reference value: 7.43%); format: functional
HCT-116 [8] = assay: Antiproliferative activity against Bax knockout human HCT-116 cells assessed as inhibition of cell viability incubated for 24 hrs by CCK8 assay; format: functional, cell-based; details: HCT-116, 24 h
HCT-116 [9] = assay: Antiproliferative activity against p53 knockout human HCT-116 cells assessed as inhibition of cell viability incubated for 24 hrs by CCK8 assay; format: functional, cell-based; details: HCT-116, 24 h
HCT-116 [10] = assay: Effect on C-PARP expression level in p53 knockout human HCT-116 cells at 1 to 2 uM incubated for 24 hrs by Western blot analysis; format: functional, cell-based; details: dose 1-2 µM
HCT-116 [11] = assay: Induction of autophagy in human HCT-116 cells transfected with tandem mRFP-GFP-LC3 plasmid assessed as increase in LC3-II accumulation incubated for 24 hrs by Western blot analysis; format: functional, cell-based; details: dose 0.5-20 µM
CT26 [12] = assay: Antitumor activity against mouse CT26 cells implanted in female BALB/c mouse assessed as reduction in Ki67 expression at 1 to 2 mg/kg administrated once every 3 days for 18 days by immunohistochemistry analysis; format: functional, organism-based; details: dose 1-2 mg/kg, time 18.0 day
[13] = Toxicity in female BALB/c mouse implanted with mouse CT26 cells assessed as change in liver morphology at 1 to 2 mg/kg administrated once every 3 days for 18 days by H&E staining based analysis; format: organism-based; details: in vivo, 432 h, dose 1-2 mg/kg, time 18 day
[14] = Toxicity in female BALB/c mouse implanted with mouse CT26 cells assessed as change in spleen morphology at 1 to 2 mg/kg administrated once every 3 days for 18 days by H&E staining based analysis; format: organism-based; details: in vivo, 432 h, dose 1-2 mg/kg, time 18 day
[15] = Toxicity in female BALB/c mouse implanted with mouse CT26 cells assessed as change in lung morphology at 1 to 2 mg/kg administrated once every 3 days for 18 days by H&E staining based analysis; format: organism-based; details: in vivo, 432 h, dose 1-2 mg/kg, time 18 day
HCT-116 [16] = assay: Inhibition of cell migration in human HCT-116 cells at 1 to 2 uM incubated for 24 hrs by crystal violet staining based transwell migration assay; format: functional; details: dose 1-2 µM
HCT-116 [17] = assay: Induction of morphological changes in human HCT-116 cells assessed as suppression of cell growth at 0.5 to 2 uM by microscopic analysis; format: functional, cell-based; details: dose 0.5-2 µM
HCT-116 [18] = assay: Induction of morphological changes in human HCT-116 cells assessed as appearance of inflated cell shape at 0.5 to 2 uM by microscopic analysis; format: functional, cell-based; details: dose 0.5-2 µM
HCT-116 [19] = assay: Induction of apoptosis in human HCT-116 cells assessed as effect on cleaved caspase-3 expression level at 0.5 to 2 uM incubated for 24 hrs by Western blot analysis; format: functional, cell-based; details: dose 0.5-2 µM
HCT-116 [20] = assay: Induction of apoptosis in human HCT-116 cells assessed as effect on cleaved caspase-8 expression level at 0.5 to 2 uM incubated for 24 hrs by Western blot analysis; format: functional, cell-based; details: dose 0.5-2 µM
HCT-116 [21] = assay: Induction of apoptosis in human HCT-116 cells assessed as effect on cleaved caspase 9 expression level at 0.5 to 2 uM incubated for 24 hrs by Western blot analysis; format: functional, cell-based; details: dose 0.5-2 µM
HCT-116 [22] = assay: Effect on PARP expression level in Bax knockout human HCT-116 cells at 1 to 2 uM incubated for 24 hrs by Western blot analysis; format: functional, cell-based; details: dose 1-2 µM
HCT-116 [23] = assay: Effect on caspase 3 expression level in Bax knockout human HCT-116 cells at 1 to 2 uM incubated for 24 hrs by Western blot analysis; format: functional, cell-based; details: dose 1-2 µM
HCT-116 [24] = assay: Effect on cleaved caspase 3 expression level in Bax knockout human HCT-116 cells at 1 to 2 uM incubated for 24 hrs by Western blot analysis; format: functional, cell-based; details: dose 1-2 µM
HCT-116 [25] = assay: Induction of autophagy in human HCT-116 cells transfected with mRFP-GFP-LC3B assessed as autophagolysosome formation by measuring RFP fluorescence at 0.5 to 2 uM incubated for 24 hrs by DAPI staining based fluorescence confocal microscopic analysis; format: functional, cell-based; details: dose 0.5-2 µM
HCT-116 [26] = assay: Induction of autophagy in human HCT-116 cells transfected with mRFP-GFP-LC3B assessed as appearance of RFP aggregate clusters in cytoplasm at 0.5 to 2 uM incubated for 24 hrs by DAPI staining based fluorescence confocal microscopic analysis; format: functional, cell-based; details: dose 0.5-2 µM
HCT-116 [27] = assay: Upregulation of autophagy pathway related genes expression in human HCT-116 cells at 1 uM incubated for 24 hrs by GSVA enrichment analysis; format: functional, cell-based
HCT-116 [28] = assay: Inhibition of colony formation in ATG5 knockout human HCT-116 cells assessed as reduction in number of colonies at 1 to 4 uM measured after 24 hrs by crystal violet staining based analysis; format: functional, cell-based; details: dose 1-4 µM
HCT-116 [29] = assay: Inhibition of colony formation in ATG7 knockout human HCT-116 cells assessed as reduction in number of colonies at 1 to 4 uM measured after 24 hrs by crystal violet staining based analysis; format: functional, cell-based; details: dose 1-4 µM
[30] = Toxicity in female BALB/c mouse implanted with mouse CT26 cells assessed as change in body weight at 1 to 2 mg/kg administrated once every 3 days for 18 days; format: organism-based; details: in vivo, 432 h, dose 1-2 mg/kg, time 18 day
CT26 [31] = assay: Antitumor activity against mouse CT26 cells implanted in female BALB/c mouse assessed as reduction in tumor weight at 1 mg/kg administrated once every 3 days for 18 days relative to control; format: functional; set-up: scale not given: the % may be the effect or the level left; details: time 18 day

With `CCN(CC)CCCNCc1cc2c3ccccc3n(CCCc3ccccc3)c2c(CNCCCN(CC)CC)n1` the IC50 (MCF7) was 4.46 µM, the IC50 (HT-29) was 2.65 µM and the IC50 (SK-OV-3) was 4.26 µM. For the same compound, the Activity (HCT-116 [1]) was “Dose-dependent-effect”, the viability at 1 µM (HCT-116 [2]) was 84.6% and the viability at 2 µM (HCT-116 [3]) was 80.5%. For the same compound, the Activity (HCT-116 [4]) was 2.78%, the Activity (HCT-116 [5]) was 2.86% and the viability at 2 µM (HCT-116 [6]) was 82.3%. For the same compound, the Activity (HCT-116 [7]) was 13.7%, the IC50 (HCT-116 [8]) was 2.76 µM and the IC50 (HCT-116 [9]) was 2.45 µM. The Activity (HCT-116 [10]) was “inactive”, the Activity (HCT-116 [11]) was “Dose-dependent-effect; Transformation Of Lc3-I To Lc3-Ii Observed” and the Activity (CT26 [12]) was “Active”. The Activity [13] was “Non-toxic”, the Activity [14] was “Non-toxic” and the Activity [15] was “Non-toxic”. The inhibition (HCT-116 [16]) was “Active”, the Activity (HCT-116 [17]) was “Active” and the Activity (HCT-116 [18]) was “Active”. For the same compound, the Activity (HCT-116 [19]) was “inactive”, the Activity (HCT-116 [20]) was “inactive” and the Activity (HCT-116 [21]) was “inactive”. For the same compound, the Activity (HCT-116 [22]) was “inactive”, the Activity (HCT-116 [23]) was “inactive” and the Activity (HCT-116 [24]) was “inactive”. The Activity (HCT-116 [25]) was “Active; Rfp Fluorescence Remained Unchanged”, the Activity (HCT-116 [26]) was “Active” and the Activity (HCT-116 [27]) was “Active”. For the same compound, the inhibition (HCT-116 [28]) was “Active; Insignificant Decrease In Number Of Colonies Observed”, the inhibition (HCT-116 [29]) was “Active; Insignificant Decrease In Number Of Colonies Observed” and the Activity [30] was “Non-toxic”. The Activity (CT26 [31]) was 56.5%.
